# According to US20250051338A1, “TYK2 DEGRADERS AND USES THEREOF” (Kymera Therapeutics, Inc., priority 2021, published 2025):
# Biological target: T1, TYK2 (Homo sapiens, UniProt P29597)
# Test: TYK2 degradation MSD assay in EBV-B cells
# Assay type: cell-based
# Set-up: endogenous in cells; host or cells: EBV-B cells
# Settings: 4 to 24 hours incubation, read-out: TYK2 MSD DC50 rating in EBV-B
# Summary of the method: (§1)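 0.4 million cells/well; cpd 9-dose 1:3 titration, top 1–10 μM; 4–24 h, 37° C, 5% CO2; RIPA lysis; TYK2 capture/detection sandwich on MSD, SULFO-TAG anti-rabbit secondary; DC50 via 4-parameter fit.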
# T1 sequence (P29597 whole entry): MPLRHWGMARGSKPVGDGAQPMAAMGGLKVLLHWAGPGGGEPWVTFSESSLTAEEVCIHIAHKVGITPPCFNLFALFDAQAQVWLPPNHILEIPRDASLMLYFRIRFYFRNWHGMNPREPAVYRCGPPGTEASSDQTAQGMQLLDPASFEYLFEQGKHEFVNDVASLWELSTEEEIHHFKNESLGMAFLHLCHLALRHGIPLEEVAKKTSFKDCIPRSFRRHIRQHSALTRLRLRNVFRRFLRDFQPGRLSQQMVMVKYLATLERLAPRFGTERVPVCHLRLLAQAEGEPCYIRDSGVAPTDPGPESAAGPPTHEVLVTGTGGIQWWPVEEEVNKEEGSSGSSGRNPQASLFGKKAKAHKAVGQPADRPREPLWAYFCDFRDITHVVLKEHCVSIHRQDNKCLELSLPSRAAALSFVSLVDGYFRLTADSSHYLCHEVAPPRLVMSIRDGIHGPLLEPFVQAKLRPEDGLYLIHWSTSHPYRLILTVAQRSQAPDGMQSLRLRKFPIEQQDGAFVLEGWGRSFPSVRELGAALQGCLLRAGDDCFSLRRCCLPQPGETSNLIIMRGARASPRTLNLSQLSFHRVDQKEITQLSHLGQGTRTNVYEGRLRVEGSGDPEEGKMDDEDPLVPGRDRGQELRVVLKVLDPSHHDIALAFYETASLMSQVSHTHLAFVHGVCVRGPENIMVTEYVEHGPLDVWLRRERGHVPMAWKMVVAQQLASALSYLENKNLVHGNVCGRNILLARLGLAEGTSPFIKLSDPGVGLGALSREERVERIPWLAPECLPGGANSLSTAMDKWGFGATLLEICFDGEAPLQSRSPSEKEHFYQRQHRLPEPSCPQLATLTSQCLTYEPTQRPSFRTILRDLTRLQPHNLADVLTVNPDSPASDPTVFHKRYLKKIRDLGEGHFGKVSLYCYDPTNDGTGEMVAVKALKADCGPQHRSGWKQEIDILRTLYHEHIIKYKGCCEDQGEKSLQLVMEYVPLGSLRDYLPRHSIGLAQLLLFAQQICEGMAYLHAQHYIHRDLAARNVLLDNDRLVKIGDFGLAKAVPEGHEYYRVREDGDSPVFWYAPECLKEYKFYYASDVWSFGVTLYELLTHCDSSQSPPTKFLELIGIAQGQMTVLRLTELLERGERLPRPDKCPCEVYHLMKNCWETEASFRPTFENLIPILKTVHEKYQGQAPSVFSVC
row,Structure (SMILES),DC50 [nM]
1,Cn1c(=O)n(C2CCC(=O)NC2=O)c2cccc(CCCCCCCCNc3cc(Nc4cccn(-c5ccccn5)c4=O)nn4c(C(=O)N[C@@H]5C[C@@H]5F)cnc34)c21 (stereo partly drawn) [Example K209],> 100
2,Cn1c(=O)n(C2CCC(=O)NC2=O)c2ccc(CCCCCCCCCCNc3cc(Nc4cccn(-c5ccccn5)c4=O)nn4c(C(=O)N[C@@H]5C[C@@H]5F)cnc34)cc21 (stereo partly drawn) [Example K210],> 100
3,Cn1c(=O)n(C2CCC(=O)NC2=O)c2ccc(CCCCCCCCCCCCNc3cc(Nc4cccn(-c5ccccn5)c4=O)nn4c(C(=O)N[C@@H]5C[C@@H]5F)cnc34)cc21 (stereo partly drawn) [Example K211],> 100
4,Cn1c(=O)n(C2CCC(=O)NC2=O)c2cccc(CCOCCOCCNc3cc(Nc4cccn(-c5ccccn5)c4=O)nn4c(C(=O)N[C@@H]5C[C@@H]5F)cnc34)c21 (stereo partly drawn) [Example K212],> 100
5,Cn1c(=O)n(C2CCC(=O)NC2=O)c2cccc(CCOCCOCCOCCOCCOCCOCCNc3cc(Nc4cccn(-c5ccccn5)c4=O)nn4c(C(=O)N[C@@H]5C[C@@H]5F)cnc34)c21 (stereo partly drawn) [Example K213],> 100
6,Cn1c(=O)n(C2CCC(=O)NC2=O)c2cccc(CCOCCOCCOCCOCCNc3cc(Nc4cccn(-c5ccccn5)c4=O)nn4c(C(=O)N[C@@H]5C[C@@H]5F)cnc34)c21 (stereo partly drawn) [Example K214],> 100
7,CNc1cc(Nc2cccn(-c3ccc(C(=O)NCCOCCOCCOCCOCCOCCOCCc4ccc5c(c4)n(C)c(=O)n5C4CCC(=O)NC4=O)cn3)c2=O)nn2c(C(=O)N[C@@H]3C[C@@H]3F)cnc12 (stereo partly drawn) [Example K215],> 100
8,CNc1cc(Nc2cccn(-c3ccc(C(=O)NCCOCCOCCc4cccc5c4n(C)c(=O)n5C4CCC(=O)NC4=O)cn3)c2=O)nn2c(C(=O)N[C@@H]3C[C@@H]3F)cnc12 (stereo partly drawn) [Example K216],> 100
9,CNc1cc(Nc2cccn(-c3ccc(C(=O)NCCOCCOCCOCCOCCOCCOCCc4cccc5c4n(C)c(=O)n5C4CCC(=O)NC4=O)cn3)c2=O)nn2c(C(=O)N[C@@H]3C[C@@H]3F)cnc12 (stereo partly drawn) [Example K217],10 to 100
10,CNc1cc(Nc2cccn(-c3ccc(C(=O)NCCOCCOCCOCCOCCc4cccc5c4n(C)c(=O)n5C4CCC(=O)NC4=O)cn3)c2=O)nn2c(C(=O)N[C@@H]3C[C@@H]3F)cnc12 (stereo partly drawn) [Example K218],> 100
11,CNc1cc(Nc2cccn(-c3cccc(C(=O)NCCCCc4ccc5c(c4)n(C)c(=O)n5C4CCC(=O)NC4=O)c3)c2=O)nn2c(C(=O)N[C@@H]3C[C@@H]3F)cnc12 (stereo partly drawn) [Example K219],> 100
12,CNc1cc(Nc2cccn(-c3cccc(C(=O)NCCCCc4cccc5c4n(C)c(=O)n5C4CCC(=O)NC4=O)c3)c2=O)nn2c(C(=O)N[C@@H]3C[C@@H]3F)cnc12 (stereo partly drawn) [Example K220],> 100
13,CNc1cc(Nc2cccn(-c3cccc(C(=O)NCCCCCCc4ccc5c(c4)n(C)c(=O)n5C4CCC(=O)NC4=O)c3)c2=O)nn2c(C(=O)N[C@@H]3C[C@@H]3F)cnc12 (stereo partly drawn) [Example K221],> 100
14,CNc1cc(Nc2cccn(-c3cccc(C(=O)NCCCCCCc4cccc5c4n(C)c(=O)n5C4CCC(=O)NC4=O)c3)c2=O)nn2c(C(=O)N[C@@H]3C[C@@H]3F)cnc12 (stereo partly drawn) [Example K222],> 100
15,CNc1cc(Nc2cccn(-c3cccc(C(=O)NCCCCCCCCc4ccc5c(c4)n(C)c(=O)n5C4CCC(=O)NC4=O)c3)c2=O)nn2c(C(=O)N[C@@H]3C[C@@H]3F)cnc12 (stereo partly drawn) [Example K223],> 100

# Biological target: T1, TYK2
# Test: TYK2 degradation MSD assay in OCI-LY10 cells
# Assay type: cell-based
# Set-up: endogenous in cells; host or cells: EBV-B cells
# Settings: 4 to 24 hours incubation, read-out: TYK2 MSD DC50 rating in OCI-LY10
# Summary of the method: as §1
row,Structure (SMILES),DC50 [nM]
1,Cn1c(=O)n(C2CCC(=O)NC2=O)c2cccc(CCCCCCCCNc3cc(Nc4cccn(-c5ccccn5)c4=O)nn4c(C(=O)N[C@@H]5C[C@@H]5F)cnc34)c21 (stereo partly drawn) [Example K209],> 100
2,Cn1c(=O)n(C2CCC(=O)NC2=O)c2ccc(CCCCCCCCCCNc3cc(Nc4cccn(-c5ccccn5)c4=O)nn4c(C(=O)N[C@@H]5C[C@@H]5F)cnc34)cc21 (stereo partly drawn) [Example K210],> 100
3,Cn1c(=O)n(C2CCC(=O)NC2=O)c2ccc(CCCCCCCCCCCCNc3cc(Nc4cccn(-c5ccccn5)c4=O)nn4c(C(=O)N[C@@H]5C[C@@H]5F)cnc34)cc21 (stereo partly drawn) [Example K211],> 100
4,Cn1c(=O)n(C2CCC(=O)NC2=O)c2cccc(CCOCCOCCNc3cc(Nc4cccn(-c5ccccn5)c4=O)nn4c(C(=O)N[C@@H]5C[C@@H]5F)cnc34)c21 (stereo partly drawn) [Example K212],> 100
5,Cn1c(=O)n(C2CCC(=O)NC2=O)c2cccc(CCOCCOCCOCCOCCOCCOCCNc3cc(Nc4cccn(-c5ccccn5)c4=O)nn4c(C(=O)N[C@@H]5C[C@@H]5F)cnc34)c21 (stereo partly drawn) [Example K213],> 100
6,Cn1c(=O)n(C2CCC(=O)NC2=O)c2cccc(CCOCCOCCOCCOCCNc3cc(Nc4cccn(-c5ccccn5)c4=O)nn4c(C(=O)N[C@@H]5C[C@@H]5F)cnc34)c21 (stereo partly drawn) [Example K214],> 100
7,CNc1cc(Nc2cccn(-c3ccc(C(=O)NCCOCCOCCOCCOCCOCCOCCc4ccc5c(c4)n(C)c(=O)n5C4CCC(=O)NC4=O)cn3)c2=O)nn2c(C(=O)N[C@@H]3C[C@@H]3F)cnc12 (stereo partly drawn) [Example K215],> 100
8,CNc1cc(Nc2cccn(-c3ccc(C(=O)NCCOCCOCCc4cccc5c4n(C)c(=O)n5C4CCC(=O)NC4=O)cn3)c2=O)nn2c(C(=O)N[C@@H]3C[C@@H]3F)cnc12 (stereo partly drawn) [Example K216],> 100
9,CNc1cc(Nc2cccn(-c3ccc(C(=O)NCCOCCOCCOCCOCCOCCOCCc4cccc5c4n(C)c(=O)n5C4CCC(=O)NC4=O)cn3)c2=O)nn2c(C(=O)N[C@@H]3C[C@@H]3F)cnc12 (stereo partly drawn) [Example K217],> 100
10,CNc1cc(Nc2cccn(-c3ccc(C(=O)NCCOCCOCCOCCOCCc4cccc5c4n(C)c(=O)n5C4CCC(=O)NC4=O)cn3)c2=O)nn2c(C(=O)N[C@@H]3C[C@@H]3F)cnc12 (stereo partly drawn) [Example K218],> 100
11,CNc1cc(Nc2cccn(-c3cccc(C(=O)NCCCCc4ccc5c(c4)n(C)c(=O)n5C4CCC(=O)NC4=O)c3)c2=O)nn2c(C(=O)N[C@@H]3C[C@@H]3F)cnc12 (stereo partly drawn) [Example K219],> 100
12,CNc1cc(Nc2cccn(-c3cccc(C(=O)NCCCCc4cccc5c4n(C)c(=O)n5C4CCC(=O)NC4=O)c3)c2=O)nn2c(C(=O)N[C@@H]3C[C@@H]3F)cnc12 (stereo partly drawn) [Example K220],> 100
13,CNc1cc(Nc2cccn(-c3cccc(C(=O)NCCCCCCc4ccc5c(c4)n(C)c(=O)n5C4CCC(=O)NC4=O)c3)c2=O)nn2c(C(=O)N[C@@H]3C[C@@H]3F)cnc12 (stereo partly drawn) [Example K221],> 100
14,CNc1cc(Nc2cccn(-c3cccc(C(=O)NCCCCCCc4cccc5c4n(C)c(=O)n5C4CCC(=O)NC4=O)c3)c2=O)nn2c(C(=O)N[C@@H]3C[C@@H]3F)cnc12 (stereo partly drawn) [Example K222],> 100
15,CNc1cc(Nc2cccn(-c3cccc(C(=O)NCCCCCCCCc4ccc5c(c4)n(C)c(=O)n5C4CCC(=O)NC4=O)c3)c2=O)nn2c(C(=O)N[C@@H]3C[C@@H]3F)cnc12 (stereo partly drawn) [Example K223],> 100

# Biological target: T1, TYK2
# Test: TYK2 degradation MSD assay in human PBMC cells
# Assay type: cell-based
# Set-up: endogenous in cells; host or cells: human PBMC
# Settings: 4 to 24 hours incubation, read-out: TYK2 MSD DC50 rating in human PBMC
# Summary of the method: as §1
row,Structure (SMILES),DC50 [nM]
1,Cn1c(=O)n(C2CCC(=O)NC2=O)c2cccc(CCCCCCCCNc3cc(Nc4cccn(-c5ccccn5)c4=O)nn4c(C(=O)N[C@@H]5C[C@@H]5F)cnc34)c21 (stereo partly drawn) [Example K209],> 100
2,Cn1c(=O)n(C2CCC(=O)NC2=O)c2ccc(CCCCCCCCCCNc3cc(Nc4cccn(-c5ccccn5)c4=O)nn4c(C(=O)N[C@@H]5C[C@@H]5F)cnc34)cc21 (stereo partly drawn) [Example K210],> 100
3,Cn1c(=O)n(C2CCC(=O)NC2=O)c2ccc(CCCCCCCCCCCCNc3cc(Nc4cccn(-c5ccccn5)c4=O)nn4c(C(=O)N[C@@H]5C[C@@H]5F)cnc34)cc21 (stereo partly drawn) [Example K211],> 100
4,Cn1c(=O)n(C2CCC(=O)NC2=O)c2cccc(CCOCCOCCNc3cc(Nc4cccn(-c5ccccn5)c4=O)nn4c(C(=O)N[C@@H]5C[C@@H]5F)cnc34)c21 (stereo partly drawn) [Example K212],> 100
5,Cn1c(=O)n(C2CCC(=O)NC2=O)c2cccc(CCOCCOCCOCCOCCOCCOCCNc3cc(Nc4cccn(-c5ccccn5)c4=O)nn4c(C(=O)N[C@@H]5C[C@@H]5F)cnc34)c21 (stereo partly drawn) [Example K213],> 100
6,Cn1c(=O)n(C2CCC(=O)NC2=O)c2cccc(CCOCCOCCOCCOCCNc3cc(Nc4cccn(-c5ccccn5)c4=O)nn4c(C(=O)N[C@@H]5C[C@@H]5F)cnc34)c21 (stereo partly drawn) [Example K214],> 100
7,CNc1cc(Nc2cccn(-c3ccc(C(=O)NCCOCCOCCOCCOCCOCCOCCc4ccc5c(c4)n(C)c(=O)n5C4CCC(=O)NC4=O)cn3)c2=O)nn2c(C(=O)N[C@@H]3C[C@@H]3F)cnc12 (stereo partly drawn) [Example K215],10 to 100
8,CNc1cc(Nc2cccn(-c3ccc(C(=O)NCCOCCOCCc4cccc5c4n(C)c(=O)n5C4CCC(=O)NC4=O)cn3)c2=O)nn2c(C(=O)N[C@@H]3C[C@@H]3F)cnc12 (stereo partly drawn) [Example K216],1 to 10
9,CNc1cc(Nc2cccn(-c3ccc(C(=O)NCCOCCOCCOCCOCCOCCOCCc4cccc5c4n(C)c(=O)n5C4CCC(=O)NC4=O)cn3)c2=O)nn2c(C(=O)N[C@@H]3C[C@@H]3F)cnc12 (stereo partly drawn) [Example K217],10 to 100
10,CNc1cc(Nc2cccn(-c3ccc(C(=O)NCCOCCOCCOCCOCCc4cccc5c4n(C)c(=O)n5C4CCC(=O)NC4=O)cn3)c2=O)nn2c(C(=O)N[C@@H]3C[C@@H]3F)cnc12 (stereo partly drawn) [Example K218],10 to 100
11,CNc1cc(Nc2cccn(-c3cccc(C(=O)NCCCCc4ccc5c(c4)n(C)c(=O)n5C4CCC(=O)NC4=O)c3)c2=O)nn2c(C(=O)N[C@@H]3C[C@@H]3F)cnc12 (stereo partly drawn) [Example K219],1 to 10
12,CNc1cc(Nc2cccn(-c3cccc(C(=O)NCCCCc4cccc5c4n(C)c(=O)n5C4CCC(=O)NC4=O)c3)c2=O)nn2c(C(=O)N[C@@H]3C[C@@H]3F)cnc12 (stereo partly drawn) [Example K220],> 100
13,CNc1cc(Nc2cccn(-c3cccc(C(=O)NCCCCCCc4ccc5c(c4)n(C)c(=O)n5C4CCC(=O)NC4=O)c3)c2=O)nn2c(C(=O)N[C@@H]3C[C@@H]3F)cnc12 (stereo partly drawn) [Example K221],> 100
14,CNc1cc(Nc2cccn(-c3cccc(C(=O)NCCCCCCc4cccc5c4n(C)c(=O)n5C4CCC(=O)NC4=O)c3)c2=O)nn2c(C(=O)N[C@@H]3C[C@@H]3F)cnc12 (stereo partly drawn) [Example K222],1 to 10
15,CNc1cc(Nc2cccn(-c3cccc(C(=O)NCCCCCCCCc4ccc5c(c4)n(C)c(=O)n5C4CCC(=O)NC4=O)c3)c2=O)nn2c(C(=O)N[C@@H]3C[C@@H]3F)cnc12 (stereo partly drawn) [Example K223],1 to 10
